{"source": "patent US9789116B2", "about": "“Compositions and methods of modulating short-chain dehydrogenase activity” (CASE WESTERN RESERVE UNIVERSITY, priority 2013, dated 2017)", "key": {"[1]": {"test_system": "C57BL/6J mice irradiated with 11Gy", "experiment": "Survival of irradiated mice receiving marrow allograft (Example 6)", "format": "in vivo, mouse", "details": "cohort of 3", "from_the_text": "The experimental design is depicted in FIG. 50.\nUnder the conditions of the mouse colony during this study, control mice receiving 100,000-500,000 cells are all dead between days 4-13 of study. […] Such activity would be of particular utility in settings, such as transplantation with umbilical cord stem cells, in which donor cell numbers are limited."}, "[2]": {"test_system": "lethally irradiated mice", "experiment": "Homing of CFSE dye labeled bone marrow cells in lethally irradiated mice", "format": "in vivo, mouse", "details": "10 mg/kg IP", "protocol": "Drugs are administered following radiation, following the transplant, and again at 8 hours after the transplant."}, "[3]": {"test_system": "15-PGDH mRNA", "experiment": "15-PGDH mRNA levels in colon cancer cell lines by real-time PCR", "format": "cell-based", "from_the_text": "In these studies parental cell lines (not containing the 15-PGDH-luciferase reporter) are employed."}, "[4]": {"test_system": "C57BL/6J female mice", "experiment": "Survival following acetaminophen (Tylenol) overdose;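 also: control animals received vehicle only, given on a once or twice daily schedule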", "format": "in vivo, mouse"}}}
{"compound": "CCCC[S+]([O-])c1sc2nc(-c3cccs3)cc(-c3ccccc3)c2c1N", "note": "(stereo not drawn) [SW033291, 2-(butylsulfinyl)-4-phenyl-6-(thiophen-2-yl)thieno[2,3-b]pyridin-3-amine]", "values": [{"measurement": "Number of mice surviving", "setting": "[1]; 1 × 10^5 cells, Day 1", "value": 3}, {"measurement": "Number of mice surviving", "setting": "[1]; 1 × 10^5 cells, Day 2", "value": 3}, {"measurement": "Number of mice surviving", "setting": "[1]; 1 × 10^5 cells, Day 3", "value": 3}, {"measurement": "Number of mice surviving", "setting": "[1]; 1 × 10^5 cells, Day 4", "value": 2}, {"measurement": "Number of mice surviving", "setting": "[1]; 1 × 10^5 cells, Day 5", "value": 1}, {"measurement": "Number of mice surviving", "setting": "[1]; 1 × 10^5 cells, Day 6", "value": 0}, {"measurement": "Number of mice surviving", "setting": "[1]; 2 × 10^5 cells, Day 1", "value": 3}, {"measurement": "Number of mice surviving", "setting": "[1]; 2 × 10^5 cells, Day 2", "value": 3}, {"measurement": "Number of mice surviving", "setting": "[1]; 2 × 10^5 cells, Day 3", "value": 3}, {"measurement": "Number of mice surviving", "setting": "[1]; 2 × 10^5 cells, Day 4", "value": 3}, {"measurement": "Number of mice surviving", "setting": "[1]; 2 × 10^5 cells, Day 5", "value": 3}, {"measurement": "Number of mice surviving", "setting": "[1]; 2 × 10^5 cells, Day 6", "value": 2}, {"measurement": "Number of mice surviving", "setting": "[1]; 2 × 10^5 cells, Day 7", "value": 2}, {"measurement": "Number of mice surviving", "setting": "[1]; 2 × 10^5 cells, Day 8", "value": 2}, {"measurement": "Number of mice surviving", "setting": "[1]; 2 × 10^5 cells, Day 9", "value": 2}, {"measurement": "Number of mice surviving", "setting": "[1]; 2 × 10^5 cells, Day 10", "value": 2}, {"measurement": "Number of mice surviving", "setting": "[1]; 2 × 10^5 cells, Day 11", "value": 2}, {"measurement": "Number of mice surviving", "setting": "[1]; 2 × 10^5 cells, Day 12", "value": 1}, {"measurement": "Number of mice surviving", "setting": "[1]; 2 × 10^5 cells, Day 13", "value": 0}, {"measurement": "Number of mice surviving", "setting": "[1]; 5 × 10^5 cells, Day 1", "value": 3}, {"measurement": "Number of mice surviving", "setting": "[1]; 5 × 10^5 cells, Day 2", "value": 3}, {"measurement": "Number of mice surviving", "setting": "[1]; 5 × 10^5 cells, Day 3", "value": 3}, {"measurement": "Number of mice surviving", "setting": "[1]; 5 × 10^5 cells, Day 4", "value": 3}, {"measurement": "Number of mice surviving", "setting": "[1]; 5 × 10^5 cells, Day 5", "value": 3}, {"measurement": "Number of mice surviving", "setting": "[1]; 5 × 10^5 cells, Day 6", "value": 3}, {"measurement": "Number of mice surviving", "setting": "[1]; 5 × 10^5 cells, Day 7", "value": 3}, {"measurement": "Number of mice surviving", "setting": "[1]; 5 × 10^5 cells, Day 8", "value": 2}, {"measurement": "Number of mice surviving", "setting": "[1]; 5 × 10^5 cells, Day 9", "value": 2}, {"measurement": "Number of mice surviving", "setting": "[1]; 5 × 10^5 cells, Day 10", "value": 2}, {"measurement": "Number of mice surviving", "setting": "[1]; 5 × 10^5 cells, Day 11", "value": 2}, {"measurement": "Number of mice surviving", "setting": "[1]; 5 × 10^5 cells, Day 12", "value": 2}, {"measurement": "Number of mice surviving", "setting": "[1]; 5 × 10^5 cells, Day 13", "value": 2}, {"measurement": "increase in numbers of homed cells in recipient bone marrow", "setting": "[2]; FIG. 88", "value": 3, "unit": "fold"}, {"measurement": "increase in numbers of homed cells in recipient bone marrow", "setting": "[2]; FIG. 90", "value": 2, "unit": "fold"}, {"measurement": "increase in numbers of homed donor cells in recipient bone marrow", "setting": "[2]; FIG. 140", "value": "approximately 2.5 fold"}, {"measurement": "15-PGDH mRNA levels", "setting": "[3]; V503 cells", "value": "slight increase in 15-PGDH mRNA"}, {"measurement": "15-PGDH mRNA levels", "setting": "[3]; treated colon cancer cell lines, real-time PCR", "value": "do not in general alter 15-PGDH mRNA levels"}, {"measurement": "Number of mice surviving", "setting": "[4]; 5 mg/kg 1 dose/daily, first dose immediately after Tylenol, 16 hr, cohort of 6", "value": 6}, {"measurement": "Number of mice surviving", "setting": "[4]; 5 mg/kg 1 dose/daily, first dose immediately after Tylenol, 24 hrs, cohort of 6", "value": 6}, {"measurement": "Number of mice surviving", "setting": "[4]; 5 mg/kg 2 dose/daily, first dose immediately after Tylenol, 16 hr, cohort of 6", "value": 6}, {"measurement": "Number of mice surviving", "setting": "[4]; 5 mg/kg 2 dose/daily, first dose immediately after Tylenol, 24 hrs, cohort of 6", "value": 6}, {"measurement": "Number of mice surviving", "setting": "[4]; 5 mg/kg 2 dose/daily, first dose immediately after Tylenol, 48 hrs, cohort of 6", "value": 3}, {"measurement": "Number of mice surviving", "setting": "[4]; 5 mg/kg 2 dose/daily, first dose immediately after Tylenol, 64 hrs, cohort of 6", "value": 3}, {"measurement": "Number of mice surviving", "setting": "[4]; 5 mg/kg 2 dose/daily, first dose immediately after Tylenol, 72 hrs, cohort of 6", "value": 3}, {"measurement": "Number of mice surviving", "setting": "[4]; 5 mg/kg 2 dose/daily, first dose immediately after Tylenol, 88 hr, cohort of 6", "value": 3}, {"measurement": "Number of mice surviving", "setting": "[4]; 5 mg/kg 2 dose/daily, first dose immediately after Tylenol, 96 hr, cohort of 6", "value": 3}, {"measurement": "Number of mice surviving", "setting": "[4]; 5 mg/kg 2 dose/daily, first dose immediately after Tylenol, 112 hr, cohort of 6", "value": 3}, {"measurement": "Number of mice surviving", "setting": "[4]; 5 mg/kg 2 dose/daily, first dose immediately after Tylenol, 120 hr, cohort of 6", "value": 3}, {"measurement": "survival versus control mice", "setting": "[4]; 5 mg/kg IP begun immediately following acetaminophen, once or twice daily, through 120 hours", "value": "No difference"}, {"measurement": "protection from acetaminophen lethality", "setting": "[4]; 5 mg/kg IP bid beginning 48 hours prior to acetaminophen, 9 doses", "value": "protects from the lethal hepatotoxicity of acetaminophen"}, {"measurement": "Number of mice surviving", "setting": "[4]; 5 mg/kg bid from 3 hours prior to acetaminophen, 6 doses, 16 hr, cohort of 6", "value": 6}, {"measurement": "Number of mice surviving", "setting": "[4]; 5 mg/kg bid from 3 hours prior to acetaminophen, 6 doses, 24 hrs, cohort of 6", "value": 5}, {"measurement": "Number of mice surviving", "setting": "[4]; 5 mg/kg bid from 3 hours prior to acetaminophen, 6 doses, 48 hrs, cohort of 6", "value": 3}, {"measurement": "Number of mice surviving", "setting": "[4]; 5 mg/kg bid from 3 hours prior to acetaminophen, 6 doses, 64 hrs, cohort of 6", "value": 3}, {"measurement": "Number of mice surviving", "setting": "[4]; 5 mg/kg bid from 3 hours prior to acetaminophen, 6 doses, 72 hrs, cohort of 6", "value": 3}, {"measurement": "Number of mice surviving", "setting": "[4]; 5 mg/kg bid from 3 hours prior to acetaminophen, 6 doses, 88 hr, cohort of 6", "value": 3}, {"measurement": "Number of mice surviving", "setting": "[4]; 5 mg/kg bid from 3 hours prior to acetaminophen, 6 doses, 96 hr, cohort of 6", "value": 3}, {"measurement": "Number of mice surviving", "setting": "[4]; 5 mg/kg bid from 3 hours prior to acetaminophen, 6 doses, 112 hr, cohort of 6", "value": 3}, {"measurement": "Number of mice surviving", "setting": "[4]; 5 mg/kg bid from 3 hours prior to acetaminophen, 6 doses, 120 hr, cohort of 6", "value": 3}, {"measurement": "Number of mice surviving", "setting": "[4]; 5 mg/kg bid from 48 hours prior to acetaminophen, 9 doses, 16 hr, cohort of 12", "value": 12}, {"measurement": "Number of mice surviving", "setting": "[4]; 5 mg/kg bid from 48 hours prior to acetaminophen, 9 doses, 24 hrs, cohort of 12", "value": 12}, {"measurement": "Number of mice surviving", "setting": "[4]; 5 mg/kg bid from 48 hours prior to acetaminophen, 9 doses, 40 hrs, cohort of 12", "value": 11}, {"measurement": "Number of mice surviving", "setting": "[4]; 5 mg/kg bid from 48 hours prior to acetaminophen, 9 doses, 48 hrs, cohort of 12", "value": 10}]}
